Measurements from patent publication US20250213697A1, “INJECTABLE AND/OR SPRAYABLE, IN SITU POLYMERIZABLE COLLAGEN COMPOSITIONS FOR SUSTAINED DELIVERY OF THERAPEUTICS” (priority 2023, published 2025).

What was measured:
Type in all cases: physicochemical
[1] = In vitro polymerization test of collagen/antibiotic compositions injected into WFI; settings: 27-gauge needle
Method: 50 mg lyophilized and powdered (by mortar and pestle) Voriconazole was mixed with 200 μL of in situ polymerizable collagen solution prepared according to Example 1 by passing the powder into the collagen solution using two syringes attached with a female-female adaptor. The mixture appeared clear and transparent (FIG. 4A). Aliquots were injected into water for injection (WFI) using a 27-gauge needle. A control sample composed of in situ polymerizable collagen solution only was also injected into WFI.
Two other antibiotics, Cefuroxime and Vigamox, were mixed to in situ polymerizable collagen using the same method used for adding Voriconazole to the collagen to form a collagen/antibiotic composition, respectively. […] The appearance of the mixture depends on the solubility of the antibiotics.

[2] = In vitro release of Compstatin from in situ polymerizable collagen
Method: Delivery of a complement peptide-Compstatin from in situ polymerizable collagen prepared according to Example 1 was studied in vitro. In vitro release was measured for 6 weeks to ascertain the optimum collagen formulation.

[3] = In vitro release of latanoprost from in situ polymerizable collagen gels into physiological saline (HPLC)
Method: Latanoprost (13,14-dihydro-17-phenyl-18,19,20-trinor-prostaglandin F2a-1-isopropyl ester) was obtained from Sigma-Aldrich. Soluble, pepsin digested, bovine collagen for drug delivery formulations was purchased from Advanced Biomatrix. In situ polymerizable collagen was prepared according to Example 1 by extensive dialysis of salt precipitated collagen against 0.035M EDTA with step-wise increase in pH to 7.5. Latanoprost was dissolved in 95% ethanol and added to polymerizable collagen solution to provide gel depots containing 250 μg latanoprost/100 μL collagen. The solutions were incubated in 1.0 mL of physiological saline at 37° C. The entire 1.0 mL volume was removed at time periods ranging from 1 day to 174 days and replaced with 1.0 mL of fresh saline. Latanoprost concentration in saline aliquots was measured by HPLC analysis (Millennium Research Laboratories).
In situ polymerizable collagen gels provided sustained in vitro release of Latanoprost for more than 30 days.

[4] = Short-term controlled release of lidocaine from collagen gel into 0.9% NaCl (HPLC); settings: gel in 0.9% NaCl, 37° C., 80 RPM; FIG. 6
Method: One third of the same volume of collagen solution of a lidocaine sterile solution (0.9% Lidocaine, 7% Mannitol, 80 mM EDTA-2Na, 0.05M Na2CO3 and 0.05M NaHCO3) was added to collagen. 2 mL final mixed collagen solution was incubated under 37° C. to form a gel and put into 20 mL 37° C. 0.9% NaCl solution with a stir bar stirring at 80 RPM. At 10 min, 20 min, 30 min, 60 min, 90 min, and 120 min, 2 mL NaCl solution was collected to test lidocaine concentration and additional 2 mL 0.9% NaCl solution was replenished. HPLC method was used to measured lidocaine concentration and calculated to the percentage release of the lidocaine in collagen gel.

[5] = Film formation of sprayed in situ polymerizable collagen on skin or skin wounds; settings: EGF 5,000-20,000 IU/mL
Method: The sprayable in situ polymerizable collagen was prepared by mix in situ polymerizable collagen prepared in Example 1 with PBS at volume ratio of 2:1. After mixing by stirring at 50 rpm for 10 min, the gel was centrifuge to remove the bubbles. The sprayable in situ polymerizable collagen was less viscous with better flowability and placed in a spray bottle and still remained transparent under room temperature. […] The in situ polymerizable collagen solution with EGF was sprayed to skin wounds through spray bottle and formed a film to cover the wound within 120 sec, providing a wet healing environment and continuous EGF delivery to accelerate skin healing or improve skin condition.

Molecule: CO/N=C(\C(=O)N[C@@H]1C(=O)N2C(C(=O)O)=C(COC(N)=O)CS[C@H]12)c1ccco1 [Cefuroxime]
- collagen fibril formation [1]: do not blocking the fibril formation

Molecule: CC[C@H](C)[C@H](N)C(=O)N[C@H]1CSSC[C@@H](C(=O)N[C@H](C(N)=O)[C@@H](C)O)NC(=O)[C@H](CCCN=C(N)N)NC(=O)[C@H](Cc2cnc[nH]2)NC(=O)[C@H](Cc2cnc[nH]2)NC(=O)CNC(=O)[C@H](Cc2c[nH]c3ccccc23)NC(=O)[C@H](CC(=O)O)NC(=O)[C@H](CCC(N)=O)NC(=O)[C@H](C(C)C)NC(=O)[C@H](C(C)C)NC1=O [Compstatin]
- duration of initial burst [2]: 4 days
- duration of sustained release [2]: 6 weeks
- release kinetics ([2]; measured for 6 weeks): bi-phasic release kinetics

Molecule: CC(C)OC(=O)CCC/C=C\C[C@@H]1[C@@H](CC[C@@H](O)CCc2ccccc2)[C@H](O)C[C@@H]1O [Latanoprost, 13,14-dihydro-17-phenyl-18,19,20-trinor-prostaglandin F2a-1-isopropyl ester]
- duration of sustained in vitro release of Latanoprost ([3]; in situ polymerizable collagen gels, saline 37° C.): more than 30 days
- initial release of Latanoprost ([3]; polymerizable gels added directly to saline solution): large initial release
- sustained release of Latanoprost, average ([3]; polymerizable gels added directly to saline solution, 250 μg latanoprost/100 μL collagen, 37° C.): 0.54 µg/day
- initial release of Latanoprost ([3]; polymerizable gels partially pre-polymerized): reduced initial release
- average sustained release rate of Latanoprost ([3]; polymerizable gels partially pre-polymerized before placing in solution, 250 μg latanoprost/100 μL collagen, 37° C.): 1.4 µg/day

Molecule: CCN(CC)CC(=O)Nc1c(C)cccc1C [lidocaine]
- controlled release of lidocaine [4]: within two hours

Molecule: EGF: Epidermal Growth Factor lyophilized powder dissolved in in situ polymerizable collagen solution, 5,000-20,000 IU/mL
- time to form a film covering the wound [5]: ≤ 120 s
